Data: the CheMixHub viscosity set
± gives the uncertainty stated by the source.

Test: xn = mol fraction of the nth substance listed

CCCCCCCCO + CS(C)=O
101 kPa
Conditions | viscosity [mPa·s]
303.15 K, x2 = 0.1888 | 4.267 ± 0.052
303.15 K, x2 = 0.3612 | 3.296 ± 0.041
303.15 K, x2 = 0.519 | 2.593 ± 0.032
303.15 K, x2 = 0.6642 | 2.26 ± 0.028
303.15 K, x2 = 0.7982 | 1.965 ± 0.025
303.15 K, x2 = 0.9223 | 1.757 ± 0.022
313 K, x2 = 0.1243 | 3.69 ± 0.096
313 K, x2 = 0.2177 | 3.282 ± 0.086
313 K, x2 = 0.4192 | 2.668 ± 0.069
313 K, x2 = 0.5194 | 2.442 ± 0.063
313 K, x2 = 0.6221 | 2.22 ± 0.058
313 K, x2 = 0.714 | 2.034 ± 0.053
313 K, x2 = 0.8145 | 1.894 ± 0.049
313 K, x2 = 0.902 | 1.664 ± 0.043

CCC(C)(C)OC + Cc1cccc(C)c1
viscosity [mPa·s], 100 kPa
Conditions | x1 = 0.0521 | x1 = 0.1462 | x1 = 0.2667 | x1 = 0.4165 | x1 = 0.4774 | x1 = 0.5331 | x1 = 0.6068 | x1 = 0.7371 | x1 = 0.8642 | x1 = 0.9512
293.15 K | 0.603 ± 0.03 | 0.584 ± 0.03 | 0.563 ± 0.03 | 0.539 ± 0.03 | 0.53 ± 0.03 | 0.521 ± 0.03 | 0.509 ± 0.03 | 0.487 ± 0.03 | 0.464 ± 0.03 | 0.448 ± 0.03
303.15 K | 0.542 ± 0.03 | 0.531 ± 0.03 | 0.518 ± 0.03 | 0.499 ± 0.03 | 0.489 ± 0.03 | 0.48 ± 0.03 | 0.468 ± 0.03 | 0.447 ± 0.03 | 0.426 ± 0.03 | 0.417 ± 0.03
313.15 K | 0.484 ± 0.03 | 0.47 ± 0.03 | 0.455 ± 0.03 | 0.439 ± 0.03 | 0.433 ± 0.03 | 0.427 ± 0.03 | 0.419 ± 0.03 | 0.404 ± 0.03 | 0.386 ± 0.03 | 0.375 ± 0.03

BrC(Br)Br + Cc1ccccc1
viscosity [mPa·s], 101 kPa
Conditions | x1 = 0.1032 | x1 = 0.1993 | x1 = 0.2989 | x1 = 0.3999 | x1 = 0.4985 | x1 = 0.5956 | x1 = 0.6977 | x1 = 0.7959 | x1 = 0.8985
298.15 K | 0.6593 ± 0.0074 | 0.7557 ± 0.0079 | 0.8686 ± 0.0086 | 0.9945 ± 0.0094 | 1.136 ± 0.01 | 1.287 ± 0.012 | 1.449 ± 0.013 | 1.622 ± 0.015 | 1.801 ± 0.016
303.15 K | 0.6236 ± 0.0071 | 0.7133 ± 0.0076 | 0.817 ± 0.0083 | 0.936 ± 0.009 | 1.068 ± 0.0099 | 1.207 ± 0.011 | 1.358 ± 0.012 | 1.519 ± 0.014 | 1.688 ± 0.015
308.15 K | 0.5877 ± 0.007 | 0.6722 ± 0.0074 | 0.7592 ± 0.0079 | 0.8765 ± 0.0086 | 1.001 ± 0.0094 | 1.131 ± 0.01 | 1.273 ± 0.012 | 1.426 ± 0.013 | 1.583 ± 0.014
313.15 K | 0.5544 ± 0.0068 | 0.6324 ± 0.0072 | 0.7238 ± 0.0076 | 0.8262 ± 0.0083 | 0.939 ± 0.009 | 1.061 ± 0.0098 | 1.194 ± 0.011 | 1.335 ± 0.012 | 1.483 ± 0.013

CC(C)(C)N + Cc1ccccc1
303.15 K, 101 kPa
Conditions | viscosity [mPa·s]
x2 = 0.1549 | 0.4385 ± 0.0039
x2 = 0.2226 | 0.4405 ± 0.0039
x2 = 0.3039 | 0.4431 ± 0.004
x2 = 0.3981 | 0.4489 ± 0.004
x2 = 0.522 | 0.458 ± 0.0041
x2 = 0.6221 | 0.4693 ± 0.0042
x2 = 0.7184 | 0.4824 ± 0.0043
x2 = 0.8751 | 0.5067 ± 0.0045

CCCCCCCCO + Cc1ccccc1
viscosity [mPa·s], 101 kPa
Conditions | 298.15 K | 308.15 K
x2 = 0.0495 | 6.43 ± 0.036 | 4.918 ± 0.029
x2 = 0.1104 | 5.45 ± 0.032 | 4.28 ± 0.026
x2 = 0.1513 | 4.841 ± 0.029 | 3.853 ± 0.023
x2 = 0.1999 | 4.2 ± 0.025 | 3.402 ± 0.021
x2 = 0.2517 | 3.646 ± 0.022 | 3.009 ± 0.018
x2 = 0.2997 | 3.252 ± 0.02 | 2.674 ± 0.017
x2 = 0.356 | 2.717 ± 0.017 | 2.317 ± 0.014
x2 = 0.3998 | 2.395 ± 0.015 | 2.048 ± 0.013
x2 = 0.4506 | 2.092 ± 0.013 | 1.825 ± 0.012
x2 = 0.5001 | 1.84 ± 0.012 | 1.637 ± 0.01
x2 = 0.5513 | 1.598 ± 0.01 | 1.42 ± 0.009
x2 = 0.6014 | 1.404 ± 0.009 | 1.272 ± 0.008
x2 = 0.6495 | 1.244 ± 0.008 | 1.119 ± 0.007
x2 = 0.6997 | 1.098 ± 0.007 | 1.015 ± 0.007
x2 = 0.7569 | 0.96 ± 0.007 | 0.87 ± 0.006
x2 = 0.8012 | 0.859 ± 0.006 | 0.779 ± 0.006
x2 = 0.8527 | 0.769 ± 0.006 | 0.699 ± 0.005
x2 = 0.9 | 0.674 ± 0.005 | 0.61 ± 0.005
x2 = 0.954 | 0.612 ± 0.005 | 0.554 ± 0.005

BrC(Br)Br + ClC(Cl)(Cl)Cl
Conditions | viscosity [mPa·s]
298 K, 101.3 kPa, x1 = 0.1194 | 0.965 ± 0.01
298 K, 101.3 kPa, x1 = 0.2186 | 1.037 ± 0.011
298 K, 101.3 kPa, x1 = 0.3128 | 1.115 ± 0.012
298 K, 101.3 kPa, x1 = 0.4431 | 1.231 ± 0.014
298 K, 101.3 kPa, x1 = 0.5248 | 1.308 ± 0.015
298 K, 101.3 kPa, x1 = 0.6217 | 1.397 ± 0.016
298 K, 101.3 kPa, x1 = 0.7153 | 1.477 ± 0.018
298 K, 101.3 kPa, x1 = 0.8068 | 1.609 ± 0.02
298 K, 101.3 kPa, x1 = 0.8986 | 1.753 ± 0.022
318 K, 101.33 kPa, x1 = 0.1597 | 0.8215 ± 0.039
318 K, 101.33 kPa, x1 = 0.3179 | 0.9131 ± 0.039
318 K, 101.33 kPa, x1 = 0.5191 | 1.056 ± 0.039
318 K, 101.33 kPa, x1 = 0.6651 | 1.164 ± 0.039
318 K, 101.33 kPa, x1 = 0.8607 | 1.328 ± 0.039

C=Cc1ccccc1 + ClC(Cl)Cl
viscosity [mPa·s], 101.33 kPa
Conditions | x1 = 0.101 | x1 = 0.2004 | x1 = 0.3009 | x1 = 0.4022 | x1 = 0.5055 | x1 = 0.5997 | x1 = 0.705 | x1 = 0.7962 | x1 = 0.9
298.15 K | 0.5838 ± 0.0081 | 0.6109 ± 0.0084 | 0.6357 ± 0.0086 | 0.6615 ± 0.0089 | 0.6849 ± 0.0091 | 0.7054 ± 0.0093 | 0.7267 ± 0.0096 | 0.7443 ± 0.0097 | 0.7286 ± 0.0095
303.15 K | 0.5575 ± 0.0078 | 0.5816 ± 0.0081 | 0.6033 ± 0.0083 | 0.628 ± 0.0085 | 0.6463 ± 0.0087 | 0.6686 ± 0.0089 | 0.6832 ± 0.0091 | 0.6993 ± 0.0092 | 0.6841 ± 0.0091
308.15 K | 0.5324 ± 0.0075 | 0.5513 ± 0.0077 | 0.5742 ± 0.008 | 0.5915 ± 0.0081 | 0.6109 ± 0.0083 | 0.6272 ± 0.0085 | 0.6447 ± 0.0087 | 0.6581 ± 0.0088 | 0.6521 ± 0.0087

BrC(Br)Br + ClCCCCCl
viscosity [mPa·s], 101 kPa
Conditions | x1 = 0.0978 | x1 = 0.197 | x1 = 0.2974 | x1 = 0.3963 | x1 = 0.496 | x1 = 0.5975 | x1 = 0.6963 | x1 = 0.7994 | x1 = 0.8972
298.15 K | 1.382 ± 0.013 | 1.455 ± 0.013 | 1.538 ± 0.014 | 1.607 ± 0.015 | 1.677 ± 0.015 | 1.748 ± 0.016 | 1.813 ± 0.017 | 1.868 ± 0.017 | 1.924 ± 0.017
303.15 K | 1.278 ± 0.012 | 1.346 ± 0.013 | 1.423 ± 0.013 | 1.489 ± 0.014 | 1.556 ± 0.014 | 1.624 ± 0.015 | 1.686 ± 0.015 | 1.743 ± 0.016 | 1.803 ± 0.016
308.15 K | 1.184 ± 0.011 | 1.247 ± 0.012 | 1.32 ± 0.012 | 1.381 ± 0.013 | 1.446 ± 0.013 | 1.507 ± 0.014 | 1.573 ± 0.014 | 1.625 ± 0.015 | 1.687 ± 0.015
313.15 K | 1.099 ± 0.01 | 1.158 ± 0.011 | 1.232 ± 0.011 | 1.281 ± 0.012 | 1.34 ± 0.013 | 1.401 ± 0.013 | 1.462 ± 0.013 | 1.52 ± 0.014 | 1.578 ± 0.015

BrC(Br)Br + N#CCc1ccccc1
298.15 K, 101 kPa
Conditions | viscosity [mPa·s]
x1 = 0.1271 | 1.937 ± 0.046
x1 = 0.2393 | 2 ± 0.046
x1 = 0.3546 | 2.087 ± 0.046
x1 = 0.5011 | 2.112 ± 0.047
x1 = 0.601 | 2.117 ± 0.047
x1 = 0.6932 | 2.08 ± 0.046
x1 = 0.7999 | 2.027 ± 0.046
x1 = 0.889 | 1.966 ± 0.046

BrC(Br)Br + N#Cc1ccccc1
298.15 K, 101 kPa
Conditions | viscosity [mPa·s]
x1 = 0.1782 | 1.372 ± 0.043
x1 = 0.3333 | 1.548 ± 0.044
x1 = 0.4937 | 1.727 ± 0.045
x1 = 0.6066 | 1.861 ± 0.045
x1 = 0.7005 | 1.88 ± 0.045
x1 = 0.8886 | 1.893 ± 0.045
